The values that follow come from US20200383985A1, “Inhibitors of Protease Activated Receptor-2” (Endosome Therapeutics, Inc., priority 2017, published 2020).

Test [1] has as its target T1, PAR2 (Homo sapiens, UniProt P55085).
T1 construct: HT-29 cells and HEK293 cells, which express endogenous PAR2; endogenous in cells; host or cells: HT-29
T1 sequence (P55085 26-397): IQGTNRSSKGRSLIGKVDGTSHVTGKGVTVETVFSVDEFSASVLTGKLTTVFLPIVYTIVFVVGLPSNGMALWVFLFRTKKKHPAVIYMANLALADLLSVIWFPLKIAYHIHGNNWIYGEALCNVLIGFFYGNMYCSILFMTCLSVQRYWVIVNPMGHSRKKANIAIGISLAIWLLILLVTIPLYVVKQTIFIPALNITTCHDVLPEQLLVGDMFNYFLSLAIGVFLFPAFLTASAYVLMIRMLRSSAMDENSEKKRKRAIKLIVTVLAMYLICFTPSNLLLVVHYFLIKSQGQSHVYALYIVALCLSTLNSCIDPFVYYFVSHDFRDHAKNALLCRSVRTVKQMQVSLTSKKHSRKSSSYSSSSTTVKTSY
The test is described as follows: IP1 accumulation assay in HT-29 cells (endogenous PAR2). In kind it is cell-based. As to conditions: 2F (300 nM)-induced IP1, HT-29 cells; read-out: HT-29 300 nM 2F pIC50 ± SEM (converted). The procedure, abridged:
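KNRK-hPAR2 or HT-29 cells (50×10³/well, 24 h) in LiCl-containing stimulation buffer, pre-incubated with antagonist 30 min at 37 °C, then stimulated 40 min with 2F at 100 or 300 nM (EC80) or 10 μM ATP. IP1 in lysate quantified by HTRF; IC50 from concentration-response.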

Test [2] deals with T1, PAR2. Nature of the test: IP1 accumulation assay in HEK293 cells (endogenous PAR2). Format: cell-based. Conditions: trypsin (30 nM). How it is done: Inhibition of PAR2 signaling with known PAR2 inhibitor I-343 (FIG. 14A) was investigated in HT-29 cells and HEK293 cells, which express endogenous PAR2, and in KNRK cells expressing human (h) PAR2. Accumulation of inositol phosphate-1 (IP1) was measured in response to the PAR2-selective agonist 2-Furoyl-LIGRLO-NH2 (2F), an analogue of the trypsin-exposed tethered ligand, or trypsin.
KNRK-hPAR2, KNRK, HEK293, or HT-29 cells were seeded at a density of 50×10^3 cells/well onto clear 96-well plates (PerkinElmer). After 24 h of culture, medium was replaced with IP1 stimulation buffer (10 mM HEPES, 1 mM CaCl2, 0.5 mM MgCl2, 4.2 mM KCl, 146 mM NaCl, 5.5 mM glucose, 50 mM LiCl; 37° C., 5% CO2.). Cells were pre-incubated with the antagonist or vehicle for 30 min prior to the addition of agonist. Cells were then further incubated for 40 min. Stimulation buffer was […]

For another test, the system named is mice. The test is described as follows: Visceromotor response (VMR) to colorectal distension (CRD). Format: in vivo, mouse. Conditions: 30 mg/kg, 100 μL enema into the colon, 30 min before the protease mixture. How it is done:
Noxious colorectal distension (CRD) triggers the visceromotor response (VMR), a nociceptive brainstem reflex consisting of contraction of abdominal muscles, which can be monitored by electromyography. This approach allows assessment of visceral sensitivity in awake mice (Castro, J. et al., Br. J. Pharmacol. 2017, 175(12): 2384-2398). To examine protease-induced hy-persensitivity, a protease mixture (10 nM trypsin+100 nM NE+100 nM CS) or vehicle (saline) (100 μL) was instilled into the colon (enema) of healthy mice. After 15 min, the VMR was measured in response to graded CRD (20-80 mm Hg) with a barostat balloon. In vehicle-treated mice, CRD induced a graded VMR (FIG. 9I). […] Because alterations in the compliance of the colon can alter VMR to CRD, the pressure/volume relationship was measured at all distending pressures. Compliance of the colon was unaffected by the protease mixture or I-343 (FIGS. 21E and F). […]
Electromyography (EMG) of abdominal muscles was used to monitor VMR to CRD (Eichel, K. et al., Nat. Cell Biol. 2016, 18(3): 303-310). […] The EMG signal was recorded (NL100AK headstage), amplified (NL104), filtered (NL 125/126, Neurolog, Digitimer Ltd, bandpass 50-5000 Hz), and digitized (CED 1401, Cambridge Electronic Design) for off-line analysis using Spike2 (Cambridge Electronic Design). […]

Where “and” joins values, the source holds several entries; their conditions need not be identical. Equal entries are not always repeated.

Take `Cc1nc(C(=O)N2CCN(C(=O)c3cn4nc(-c5ccc(F)cc5)cc(C(C)(C)C)c4n3)C(C)(C)C2)n[nH]1` [Compound I-343, (8-(tert-butyl)-6-(4-fluorophenyl)imidazo[1,2-b]pyridazin-2-yl)(2,2-dimethyl-4-(5-methyl-1H-1,2,4-triazole-3-carbonyl)piperazin-1-yl)methanone]: the IC50 on PAR2 [1] was 1.17 nM and 1.1 nM; at PAR2 [2] (read-out: IC50, trypsin-induced IP1 in HEK293 cells) it was 0.4 nM; at PAR2 [2] (read-out: pIC50, trypsin-induced IP1 in HEK293 cells (converted)), 0.437 nM. In addition, in the test with mice, the “protease mixture-amplified VMR to CRD” value is reported as “abolished the response”.
